Tests used:
[1] = Cloud point measurement (absorbance at 500 nm as a function of temperature); format: physicochemical
Procedure: Consistent with the standard method for measuring the cloud point of surfactants, the cloud point of each of the above blends was measured at a total concentration of 1% w/w in water using a Perkin Elmer spectrophotometer fitted with a PTP6 temperature controller. The absorbance of the solution at 500 nm wavelength was determined as a function of temperature. The cloud point was recorded as the onset of a rapid increase in absorbance as the solution began to cloud.
Cloud point—the measurements relied on the same method as for ‘Example 1’
Cloud points—were measured using the same method as in Example 1.
This example provides de-gelling, cloud point and adjuvancy data for dodecyl 23 ethoxylate with n-hexyl cap and hexadecyl 20 ethoxylate with n-hexyl cap Cloud points were measured as described in example 1 for 1% aqueous solutions of the capped and uncapped surfactants both individually and as blends (see Table 30). Degelling temperatures were also measured as outlined in example 1 for 25, 30, 35 and 40% aqueous solutions of the capped and uncapped surfactants both individually and as blends (see Table 31).
This example provides de-gelling, cloud point and adjuvancy data for oleyl 20 ethoxylate with n-butyl, n-pentyl or benzyl ether caps end capped oleyl 20 ethoxylate. Cloud points were measured as described in example 1 for 1% aqueous solutions of the capped and uncapped surfactants both individually and as blends. Degelling temperatures were also measured as outlined in example 1 for 25, 30, 35 and 40% aqueous solutions o of the capped and uncapped surfactants both individually and as blends.

[2] = test system: Commelina benghalensis (COMBE); assay: Glasshouse adjuvancy test for nicosulfuron on COMBE; format: in vivo; conditions: 21 DAA
Procedure: (§1) The biological efficacies of blends of an oleyl 20 ethoxylate uncapped surfactant with an oleyl 20 ethoxylate surfactant with an n-hexyl ether cap as adjuvants for the herbicide nicosulfuron were tested in a glasshouse against three weed species sown into standard soil in pots and cultivated under controlled conditions in a glasshouse (24/18° C. day/night; 16 hours light; 65% humidity). Nicosulfuron was added to the spray tank as a standard WG (water dispersible granule) formulation. The plants were sprayed with nicosulfuron at rates of 15 or 60 grams of pesticide per hectare using a laboratory track sprayer which delivered the aqueous spray composition at a rate of 200 litres per hectare, using a flat fan nozzle (Teejet 11002VS) at 2 bar. The adjuvants were added to the spray solution at a total rate of 0.1 or 0.2% w/v in all cases and at extra lower rates for the oleyl 20EO alone and its 1:1 blend with the oleyl 20EO n-hexyl ether to show the dose response to these adjuvants. All spray solutions also contained 10% w/w of iso-propanol. The weed species and their BBCH growth stage at spraying were Chenopodium album (CHEAL; growth stage 15), Digitaria sanguinalis (DIGSA; growth stage 14), and Commelina benghalensis (COMBE; growth stage 14). Each spray test was replicated three times. The test plants were then grown in a glasshouse under controlled conditions (24/18° C. day/night; 16 hours light; 65% humidity) and watered twice a day. The efficacy of the herbicide was assessed visually and expressed as a percentage of the leaf area killed. Samples were assessed at a time period of 21 days following application. The following tables (3-8) show the effect of blends of the two surfactants at a total concentration of 0.2 and 0.1%. In each case the blends were 1:0, 3:1, 1:1, 1:3 and 0:1 w/w of oleyl 20EO:oleyl 20 EO n-hexyl ether.

[3] = test system: Digitaria sanguinalis (DIGSA); assay: Glasshouse adjuvancy test for nicosulfuron on DIGSA; format: in vivo
Procedure: as §1, with “ether. The biological efficacies of blends of oleyl 20 ethoxylate and oleyl 20EO ethoxylate with a benzoate cap as adjuvants for the herbicide nicosulfuron were tested in a glasshouse using the same method as for ‘Example 1’ but against just two weed species and with just 0.2% w/v total adjuvant concentration. The weed species and their BBCH growth stage at spraying HI were Chenopodium album (CHEAL; growth stage 13-15) and Digitaria sanguinalis (DIGSA; growth stage 14-22).” for “ether.”

[4] = total concentration 1% w/w in water, Table 2
[5] = nicosulfuron 15 g ai/ha, 0.1% surfactant total concentration
[6] = nicosulfuron 15 g ai/ha, 0.2% surfactant total concentration
[7] = nicosulfuron 60 g ai/ha, 0.1% surfactant total concentration
[8] = nicosulfuron 60 g ai/ha, 0.2% surfactant total concentration
[9] = nicosulfuron 15 g ai/ha, 0.1% total surfactant concentration, 21 days, Table 8
[10] = nicosulfuron 15 g ai/ha, 0.2% total surfactant concentration, 21 days, Table 7
[11] = nicosulfuron 60 g ai/ha, 0.1% total surfactant concentration, 21 days, Table 8
[12] = nicosulfuron 60 g ai/ha, 0.2% total surfactant concentration, 21 days, Table 7

Compound | Cloud point [1, 4] | Mean control [2, 5] | Mean control [2, 6] | Mean control [2, 7] | Mean control [2, 8] | Mean control [3, 9] | Mean control [3, 10] | Mean control [3, 11] | Mean control [3, 12] | Cloud point ([1]; 1% aqueous solutions, Table 34) | Cloud point ([1]; 1%, Table 15) | Cloud point ([1]; 1%, Table 20) | Mean control ([3]; dose response, nicosulfuron 15 g ai/ha, adjuvant 0.05%) | Mean control ([3]; dose response, nicosulfuron 15 g ai/ha, adjuvant 0.1%) | Mean control ([3]; dose response, nicosulfuron 15 g ai/ha, adjuvant 0.2%) | Mean control ([3]; dose response, nicosulfuron 60 g ai/ha, adjuvant 0.05%) | Mean control ([3]; dose response, nicosulfuron 60 g ai/ha, adjuvant 0.1%) | Mean control ([3]; dose response, nicosulfuron 60 g ai/ha, adjuvant 0.2%) | Mean control ([3]; nicosulfuron 15 g ai/ha, 0.2% w/v total adjuvant, Example 3, growth stage 14-22) | Mean control ([3]; nicosulfuron 60 g ai/ha, 0.2% w/v total adjuvant, Example 3, growth stage 14-22)
Oleyl 20EO n-hexyl ether | 52.0 °C | 70% | 80% | 73.3% | 72.5% | 81.7% | 73.3% | 75% | 81.7% |  |  |  |  |  |  |  |  |  |  | 
CCCCCCCC/C=C\CCCCCCCCOCCOCCOCCOCCOCCOCCOCCOCCOCCOCCOCCOCCOCCOCCOCCOCCOCCOCCOCCOCCO [Oleyl 20EO, oleyl 20 ethoxylate] | >90 °C | 63.3% | 80% | 63.3% | 72.5% | 76.7% | 83.3% | 60% | 80% | >90.0 °C | >95.0 °C | >95.0 °C | 60.0% | 76.7% | 83.3% | 53.3% | 60.0% | 80.0% | 91.3% | 85.0%

From patent US11779014B2, “Adjuvants” (SYNGENTA PARTICIPATIONS AG, priority 2017, dated 2023)
